According to the supplement of paper PMC13380429:

Experiments:
Conditions in all cases: 72 h
HepG2 [1] = assay: cell viability relative to DMSO; higher = less toxic
Vero E6 [2] = assay: as above
Calu-3 [3] = assay: as above
Caco-2 [4] = assay: as above
U2OS [5] = assay: as above
HepG2 [6] = assay: drug sensitivity score (DSS) for viability; higher = more toxic; extreme values may be limits of the assay
Vero E6 [7] = assay: as above
Calu-3 [8] = assay: as above
Caco-2 [9] = assay: as above
U2OS [10] = assay: as above
HepG2 [11] = assay: relative viability EC50 (midpoint between 100% and the lowest measured viability); higher = less toxic
Vero E6 [12] = assay: as above
Calu-3 [13] = assay: as above
Caco-2 [14] = assay: as above
U2OS [15] = assay: as above

Compound	cell viability (HepG2 [1]; 1 nM) [%]	cell viability (HepG2 [1]; 10 nM) [%]	cell viability (HepG2 [1]; 100 nM) [%]	cell viability (HepG2 [1]; 1000 nM) [%]	cell viability (HepG2 [1]; 10000 nM) [%]	cell viability (Vero E6 [2]; 1 nM) [%]	cell viability (Vero E6 [2]; 10 nM) [%]	cell viability (Vero E6 [2]; 100 nM) [%]	cell viability (Vero E6 [2]; 1000 nM) [%]	cell viability (Vero E6 [2]; 10000 nM) [%]	cell viability (Calu-3 [3]; 1 nM) [%]	cell viability (Calu-3 [3]; 10 nM) [%]	cell viability (Calu-3 [3]; 100 nM) [%]	cell viability (Calu-3 [3]; 1000 nM) [%]	cell viability (Calu-3 [3]; 10000 nM) [%]	cell viability (Caco-2 [4]; 1 nM) [%]	cell viability (Caco-2 [4]; 10 nM) [%]	cell viability (Caco-2 [4]; 100 nM) [%]	cell viability (Caco-2 [4]; 1000 nM) [%]	cell viability (Caco-2 [4]; 10000 nM) [%]	cell viability (U2OS [5]; 1 nM) [%]	cell viability (U2OS [5]; 10 nM) [%]	cell viability (U2OS [5]; 100 nM) [%]	cell viability (U2OS [5]; 1000 nM) [%]	cell viability (U2OS [5]; 10000 nM) [%]	drug sensitivity score (HepG2 [6])	drug sensitivity score (Vero E6 [7])	drug sensitivity score (Calu-3 [8])	drug sensitivity score (Caco-2 [9])	drug sensitivity score (U2OS [10])	relative viability EC50 (HepG2 [11]) [µM]	relative viability EC50 (Vero E6 [12]) [µM]	relative viability EC50 (Calu-3 [13]) [µM]	relative viability EC50 (Caco-2 [14]) [µM]	relative viability EC50 (U2OS [15]) [µM]
Cn1c(NCCN(CCO)CCCc2ccc([N+](=O)[O-])cc2)cc(=O)n(C)c1=O [nifekalant]	109	106	94	86.1	109	89.8	102	91.6	102	104	96.2	103	104	110	95.3	107	96.7	86.9	90.8	92.5	95.1	94.3	98.9	97.7	99.4	0	0	0	1.8	0	> 10	> 10	> 10	> 10	> 10
CNCCC=C1c2ccccc2C=Cc2ccccc21 [norcyclobenzaprine]	94.7	93.4	102	98.3	89.3	95.9	97.5	92.6	94.5	95.2	109	96.6	103	105	84.8	94.2	96.4	97.7	102	90.5	102	98.1	100	106	100	0	0	0.1	0	0	> 10	> 10	> 10	> 10	> 10
C[C@@H]1CC(=O)c2c(ccc3c2C(=O)c2cccc(O)c2C3=O)C1 [ochromycinone]	87.4	91	96.6	96.5	76	100	100	104	93.3	85.8	100	104	103	104	92.8	107	96.1	99.6	110	112	101	100	93.9	99.7	99.9	1.4	0.6	0	0	0	> 10	> 10	> 10	> 10	> 10
O=C(O)CCc1nc(-c2ccccc2)c(-c2ccccc2)o1 [oxaprozin]	104	99.1	107	109	92.1	99	97.5	94.8	104	97.2	98.3	92.1	102	96.8	102	94.7	97.1	100	108	101	102	95.4	101	94.2	96.8	0	0	0	0	0	> 10	> 10	> 10	> 10	> 10
CONC(=N)c1ccc(-c2ccc(-c3ccc(C(=N)NOC)cc3)o2)cc1 [pafuramidine]	94.4	106	99.2	92.9	110	98.2	97.5	96	93.9	107	98.3	97.4	95.4	96	98.5	92.3	97	92.5	97.5	87.9	99.1	99.8	96.9	102	98.9	0	0	0	0	0	> 10	> 10	> 10	> 10	> 10
Nc1nc(O)c2ncn(CCC(CO)CO)c2n1 [penciclovir]	89.8	94.3	101	94.6	102	100	94.3	90	95.1	102	102	90.8	92	94.1	99.5	98.7	109	102	103	102	99.3	95.9	93.9	101	104	0	0	0	0	0	> 10	> 10	> 10	> 10	> 10
O=C(CCc1ccc(O)cc1)c1c(O)cc(O)cc1O [phloretin]	107	98.3	94.2	99.1	99.4	105	102	99.9	103	95.1	104	93.2	98.7	98	91.3	92.1	101	97.5	101	98.6	95.8	100	103	96.8	101	0	0	0	0	0	> 10	> 10	> 10	> 10	> 10
CC(C)[C@H](CO)Nc1nc(Nc2cccc(Cl)c2)c2ncn(C(C)C)c2n1 [purvalanol-A]	90.8	96.8	100	94.8	87.2	100	97.4	93.7	95.5	77.3	102	109	96.5	102	91.4	91.6	103	93.4	94.2	83.1	97.4	105	95.5	99	86.4	0.4	1.4	0	0.4	0.2	> 10	> 10	> 10	> 10	> 10
O=C(NC1CCNCC1)[C@@H]1CC[C@@H]2CN1C(=O)N2OS(=O)(=O)O [relebactam]	93.9	109	94.1	108	95.3	99.1	97.2	97.9	102	104	110	103	99	107	98.2	92.6	108	89.4	94.6	90	102	107	103	101	100	0	0	0	0.3	0	> 10	> 10	> 10	> 10	> 10
O=C(NCCCN1CCOCC1)c1cnn2c(-c3ccccc3)cc(-c3ccccc3)nc12 [reversan]	91.7	95.6	92.6	102	93.3	97.8	100	103	103	82.6	105	101	107	91.8	75.4	104	97	92.2	88.8	75.6	103	103	97.5	99.5	85.8	0	0.3	2	1.8	0.2	> 10	> 10	> 10	> 10	> 10
CO[C@H]1/C=C/O[C@@]2(C)Oc3c(C)c(O)c4c(O)c(c5c(nc6cc(C)ccn65)c4c3C2=O)NC(=O)/C(C)=C\C=C\[C@H](C)[C@H](O)[C@@H](C)[C@@H](O)[C@@H](C)[C@H](OC(C)=O)[C@@H]1C [rifaximin]	110	95.3	102	104	106	106	93.6	108	106	117	94.7	95	89	101	94.6	137	112	87	98.2	96.4	96.7	99.3	94.6	93.3	96.4	0	0	0	0	0	> 10	> 10	> 10	> 10	> 10
